Some test systems named below: DMS-273; RXF 631; LXFL 529; DLD-1; HOP-18; M19-MEL; DMS-114; KM-20L2; XF498.
What all share (assay): DTP human tumour cell line panel, 48 h

Each structure is given as a SMILES string.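 These data come from cells grown in 96-well plates and exposed to compound for 48 hours at five concentrations. GI50 is the concentration that inhibits growth by half.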 Active and inactive are the calls of the source. Rule as the data show it: active = GI50 up to about 1.1 µM and inactive = higher. A value given as a limit tells only on which side of the number the result lay.

The text below walks through data of ChEMBL document CHEMBL1201862, “PubChem BioAssay data set” (2004).

A word on the GI50: it is the concentration giving 50% growth inhibition.

Regarding `CC(C)c1cccc(=O)c(O)c1`, the GI50 was 4 µM (inactive) in the test with DMS-273; 1.25 µM (inactive) in the test on RXF 631; 1.47 µM (inactive) in the test with LXFL 529; 1.73 µM (inactive) in the test on DLD-1; 1.4 µM (inactive) in the test on HOP-18; 2.15 µM (inactive) in the test on M19-MEL. Moreover, the GI50 in the test with DMS-114 was 2.24 µM (inactive); in the test on KM-20L2, 2.85 µM (inactive).

Turning to `COC1C=CC(C(=O)[N+]2=Cc3[nH]c4ccccc4c3CC2)O1` (stereo not given), the GI50 is 82.2 µM (inactive) with DMS-273; > 100 µM (inactive) in the test on RXF 631; 98.2 µM (inactive) with LXFL 529; > 100 µM (inactive) with DLD-1; > 100 µM (inactive) with HOP-18; > 100 µM (inactive) in the test on M19-MEL. The figures for the GI50 with DMS-114 and in the test with KM-20L2 were 66.4 µM (inactive) and > 100 µM (inactive), respectively.

As to `Cc1nc2c(C)c3c([nH]c4ccc(Cl)cc43)c(C)c2c(O)c1C`, the GI50 with DMS-273 is 9.02 µM (inactive); with DLD-1, 14.2 µM (inactive); in the test on XF498, 43.2 µM (inactive); with HOP-18, 33.8 µM (inactive); with M19-MEL, 6.18 µM (inactive); in the test with DMS-114, 19.8 µM (inactive).

Regarding `[N-]=[N+]=NC1(Cc2ccccc2)C(=O)c2cccc3c2N(CCC3)C1=O` (stereo not given), the GI50 in the test with DMS-273, in the test on LXFL 529, in the test with DLD-1, with HOP-18, with M19-MEL and in the test with DMS-114 was > 100 µM (inactive) in each case.

As for `CCN1C(=O)N(C)C(O)c2c1nc1ccccn1c2=O` (stereo not given), the GI50 is 19.5 µM (inactive) in the test with DMS-273; 29 µM (inactive) with LXFL 529; 31.4 µM (inactive) with DLD-1; 26.2 µM (inactive) in the test on XF498; 22.3 µM (inactive) with HOP-18; 28.4 µM (inactive) in the test on M19-MEL. For the same molecule, the results for the GI50 in the test with DMS-114 and in the test with KM-20L2 were 7.4 µM (inactive) and 25.5 µM (inactive), respectively.

In the case of `O=C1c2c(c3c4ccccc4n4c3c3c2c2ccccc2n3C/C=C\C4)C(=O)N1Cc1ccccc1`, the GI50 is > 100 µM (inactive) in the test with LXFL 529; > 100 µM (inactive) in the test on DLD-1; 31.3 µM (inactive) in the test with XF498; > 100 µM (inactive) in the test with HOP-18; > 100 µM (inactive) in the test on M19-MEL; > 100 µM (inactive) in the test with KM-20L2.

In the case of `C/C(CC(=O)Nc1ccc(C)cc1)=N\NC(N)=S`, the GI50 in the test with LXFL 529 is 72.3 µM (inactive); with DLD-1, 97.7 µM (inactive); in the test with XF498, > 100 µM (inactive); in the test on M19-MEL, > 100 µM (inactive); in the test on DMS-114, > 100 µM (inactive); with KM-20L2, > 100 µM (inactive).

For the molecule `c1ccc(SCCP(CCP(c2ccccc2)c2ccccc2)c2ccccc2)cc1` (stereo not given), the GI50 is 1.73 µM (inactive) in the test on DMS-273; 3.33 µM (inactive) with LXFL 529; 22 µM (inactive) in the test with DLD-1; 2.47 µM (inactive) in the test on XF498; 2.16 µM (inactive) with HOP-18; 10.7 µM (inactive) with M19-MEL. For the same molecule, in the test on DMS-114, the GI50 is 10.2 µM (inactive).

`Cc1ccc(S(=O)(=O)OC(c2ccc(Cl)cc2Cl)C2OC(=O)c3ccccc32)cc1` (stereo not given): the GI50 in the test on DMS-273 is 75.5 µM (inactive); in the test on LXFL 529 it was > 100 µM (inactive); in the test on XF498, > 100 µM (inactive); in the test on M19-MEL it was > 100 µM (inactive); in the test with DMS-114, 45.8 µM (inactive); in the test on KM-20L2, 32.7 µM (inactive).

Regarding `CC(=O)OCCOCn1c2ccccc2c2c3c(c4c5ccccc5n(COCCOC(C)=O)c4c21)C(=O)N(Cc1ccccc1)C3=O`, the GI50 in the test on DMS-273, in the test with LXFL 529, in the test with DLD-1, in the test with M19-MEL and in the test with KM-20L2 was > 100 µM (inactive) each time.

For `Cc1ccc(-c2cc(-c3ccccc3)c(C#N)c(=O)[nH]2)cc1`, the GI50 in the test on DMS-273, in the test on RXF 631, with LXFL 529, with DLD-1, in the test on HOP-18 and in the test with M19-MEL was > 100 µM (inactive) throughout. For the same molecule, the GI50 with DMS-114 and in the test on KM-20L2 was > 100 µM (inactive) in each case.

For the molecule `NNC(=S)N/N=C/C(Cl)=C(\Cl)C(=O)O`, the GI50 with DMS-273, in the test on LXFL 529, in the test on DLD-1, in the test on XF498, with M19-MEL and in the test with DMS-114 was > 100 µM (inactive) throughout. Moreover, the GI50 in the test with KM-20L2 was > 100 µM (inactive).

Regarding `COc1ccc2c(c1OC)C(C=C(c1ccccc1)c1ccccc1)CN(C)C2` (stereo not given), the GI50 is 17.5 µM (inactive) with DMS-273; 17.4 µM (inactive) in the test on RXF 631; 14.4 µM (inactive) in the test on LXFL 529; 23.4 µM (inactive) in the test on DLD-1; 17.6 µM (inactive) in the test on HOP-18; 30.5 µM (inactive) in the test on M19-MEL. Besides, the GI50 in the test on DMS-114 is 13.9 µM (inactive); with KM-20L2, 10.3 µM (inactive).

As to `CN(C)CCC(=O)c1ccccc1`, the GI50 in the test on DMS-273 was > 58.2 µM (inactive); in the test on LXFL 529 it was 26.3 µM (inactive); with DLD-1, 19.8 µM (inactive); with XF498, 19.4 µM (inactive); in the test with HOP-18 it was > 56.4 µM (inactive); in the test on M19-MEL, 33.2 µM (inactive). Besides, the GI50 was > 39.1 µM (inactive) in the test on DMS-114 and > 43.8 µM (inactive) in the test with KM-20L2.

On to `COC1OC(CBr)C(OC(=O)c2ccccc2)C(OS(=O)(=O)c2ccc(C)cc2)C1Br` (stereo not given), for which the GI50 in the test on DMS-273, with LXFL 529, with M19-MEL and in the test on KM-20L2 was > 100 µM (inactive) in each case.

In the case of `CC(=O)OCC(=O)[C@@]12OC(C)(C)O[C@@H]1C[C@H]1[C@@H]3CC(C=O)=C4C=C(OCCCl)CC[C@]4(C)[C@@]3(F)[C@@H](O)C[C@@]12C` [FORMOCORTAL], the GI50 with DMS-273 is 19.9 µM (inactive); in the test on DLD-1 it was 23 µM (inactive); with XF498, 15.1 µM (inactive); in the test with HOP-18, 18.5 µM (inactive); in the test on M19-MEL, 22.3 µM (inactive); with DMS-114, > 100 µM (inactive). For the same molecule, the GI50 in the test with KM-20L2 is 11.8 µM (inactive).

On to `Cc1cc(Br)ccc1/N=N/c1c(C)nn(-c2ccccc2)c1-c1ccccc1`, for which the GI50 in the test on DMS-273 is 34.3 µM (inactive); in the test on LXFL 529, 45.8 µM (inactive); in the test on DLD-1, 30.9 µM (inactive); in the test with XF498 it was > 100 µM (inactive); with HOP-18, > 100 µM (inactive); with M19-MEL, > 100 µM (inactive). In the test with DMS-114, the GI50 is 89.5 µM (inactive).

As for `Nc1nc(O)c2nc(N)n(Cc3ccccc3)c2n1`, the GI50 with DMS-273, in the test on LXFL 529, in the test on DLD-1, with XF498, in the test on M19-MEL and with DMS-114 was > 100 µM (inactive) each time. The GI50 in the test with KM-20L2 was > 100 µM (inactive).

Turning to `Cn1cccc1/C=C/c1cc(Br)c(/C=C/c2cccn2C)cc1Br`, the GI50 in the test with DMS-273 is 18.5 µM (inactive); in the test on RXF 631, 13.9 µM (inactive); with LXFL 529, 12.3 µM (inactive); in the test with DLD-1, 0.643 µM (active); with HOP-18 it was 5 µM (inactive); with M19-MEL, 18.4 µM (inactive). Moreover, the GI50 was 11.6 µM (inactive) in the test with DMS-114 and 16.3 µM (inactive) with KM-20L2.
